Assay results published in patent US12679878B2, “CRF2 receptor agonists and their use in therapy” (SANOFI, priority 2020, dated 2026).
Where two headings read alike, the source gives them in different places. Starred links: 1 amine or outer side, 2 acyl side, 3 side chain; linkers in the order of their positions; H or OH if unused. Non-standard residues stand in square brackets, D forms with d. Residues, ends and D or L forms follow the SMILES beside them. Groups on a side chain read outwards from the residue. *: point of attachment. C20 diacid = O=C(O)CCCCCCCCCCCCCCCCCCC(=O)*; C18 diacid = O=C(O)CCCCCCCCCCCCCCCCC(=O)*; γGlu = O=C(O)[C@H](CCC(=O)[*:2])N[*:1]; AEEA = NCCOCCOCC(=O)O; Aib = CC(C)(N)C(=O)O

What was measured:
human CRF2α receptor = target: T1, human CRF2α receptor (Homo sapiens, UniProt Q13324); test: cAMP agonism at human CRF2 α receptor in TeloHEAC cells (Example 7); type: cell-based; details: cAMP HTRF, TeloHEAC cells stably expressing human CRF2 α
T1 construct: expressed in transfected cells; host or cells: TeloHEAC
T1 sequence (Q13324 1-411): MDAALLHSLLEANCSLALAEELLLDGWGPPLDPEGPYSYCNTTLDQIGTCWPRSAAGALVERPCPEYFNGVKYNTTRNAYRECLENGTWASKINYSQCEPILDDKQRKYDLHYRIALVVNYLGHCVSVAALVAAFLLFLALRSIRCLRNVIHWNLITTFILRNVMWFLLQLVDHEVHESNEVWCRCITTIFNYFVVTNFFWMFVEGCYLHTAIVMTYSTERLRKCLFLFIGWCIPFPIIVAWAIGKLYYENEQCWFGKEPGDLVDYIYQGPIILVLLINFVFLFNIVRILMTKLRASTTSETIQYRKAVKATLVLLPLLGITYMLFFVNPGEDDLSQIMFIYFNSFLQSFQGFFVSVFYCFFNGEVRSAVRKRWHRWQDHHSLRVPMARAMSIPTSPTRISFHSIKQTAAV
Summary of the method: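 Percent activation was referenced to 1000 nM UCN2 (100%), and EC50 values taken as concentrations giving half of maximal response. The read-out was a homogeneous time-resolved fluorescence cAMP kit, fluorescence ratio 665/620 nm. Thawed cells (2000/well) saw compound for 30 min at RT in buffer with 2 mM IBMX and 0%/0.1% HSA.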

rat CRF2R α receptor = test: cAMP agonism at rat CRF2R α receptor in A7R5 rat aortic smooth muscle cells (Example 8); type: cell-based; details: cAMP HTRF, A7R5 rat aortic smooth muscle cell line, 0% HSA
Protocol: Cells were grown in a T175 culture flask placed at 37° C. to near confluence in medium (DMEM/10% FBS) and collected in 2 ml vials in cell culture medium containing 10% DMSO in a concentration of 10-50 million cells/ml. Each vial contained 1.8 ml cells. The vials were slowly frozen to −80° C. in isopropanol and then transferred in liquid nitrogen for storage. Prior to use, frozen cells were thawed quickly at 37° C. and washed (5 min at 900 rpm) with 20 ml cell buffer (1×HBSS; 20 mM HEPES; 0% or 0.1% HSA). Cells were resuspended in assay buffer (cell buffer plus 2 mM IBMX) and adjusted to a cell density of 1 million cells/ml. For measurement, 5 μl cells (final […]) and 5 μL of test compound were added to a 384-well plate, followed by incubation for 30 minutes at room temperature.
The CAMP content of cells was determined using a kit from Cisbio Corp. (cat. no. 62AM4PEC) based on HTRF (Homogenous Time Resolved Fluorescence). After addition of HTRF reagents diluted in lysis buffer (kit components), the plates were incubated for 1 h, followed by measurement of the fluorescence ratio at 665/620 nm. The percent activity value (E %) was calculated by setting 1000 nM of urocortin 2 (UCN2) as 100%. The in vitro potency of the compounds was quantified by determining the concentrations that caused 50% activation of maximal response (EC50).
Using the procedure described in Example 7, the activity of the compounds at the rat CRF2R α receptor was assessed. The A7R5 rat aortic smooth muscle cell line was used in this study.

[1] = 0% HSA, read-out: EC50 [nM], 0% HSA
[2] = 0.1% HSA, read-out: EC50 [nM], 0.1% HSA

EC50 (human CRF2α receptor; [1]) [nM]	EC50 (human CRF2α receptor; [2]) [nM]	EC50 (rat CRF2R α receptor) [nM]	Structure (SMILES)
0.42	5.63	5.29	CC[C@H](C)[C@H](NC(C)=O)C(=O)N[C@H](C(=O)N[C@@H](CC(C)C)C(=O)N[C@@H](CO)C(=O)N[C@@H](CC(C)C)C(=O)N[C@@H](CC(=O)O)C(=O)N[C@@H](C(=O)N1CCC[C@H]1C(=O)N[C@H](C(=O)N[C@@H](CCCCN)C(=O)N[C@@H](CC(C)C)C(=O)N[C@@H](CCCCNC(=O)COCCOCCNC(=O)COCCOCCNC(=O)CC[C@H](NC(=O)CCCCCCCCCCCCCCCCC(=O)O)C(=O)O)C(=O)N[C@@H](CCC(N)=O)C(=O)N[C@H](C(=O)N[C@@H](CC(C)C)C(=O)N[C@@H](CC(C)C)C(=O)N[C@@H](CCC(=O)O)C(=O)N[C@@H](CCC(N)=O)C(=O)N[C@@H](CCC(=O)O)C(=O)N[C@@H](CCCNC(=N)N)C(=O)N[C@@H](CCC(N)=O)C(=O)N[C@@H](CCCCN)C(=O)NC(C)(C)C(=O)N[C@@H](CCC(N)=O)C(=O)N[C@@H](CCCNC(=N)N)C(=O)N[C@@H](CCC(=O)O)C(=O)N[C@@H](CCC(N)=O)C(=O)N[C@@H](C)C(=O)N[C@@H](CCC(=O)O)C(=O)N[C@@H](CCCCN)C(=O)N[C@@H](CC(N)=O)C(=O)N[C@@H](CCCCN)C(=O)N[C@@H](CCC(N)=O)C(=O)N[C@H](C(=O)N[C@@H](CC(C)C)C(=O)N[C@@H](CCC(=O)O)C(=O)N[C@@H](CCC(N)=O)C(=O)N[C@H](C(N)=O)C(C)C)[C@@H](C)CC)[C@@H](C)CC)[C@@H](C)CC)C(C)C)C(C)C [compound 158] (Ac-IVLSLD[dV]PIKLK([AEEA-AEEA-γGlu-C18 diacid])QILLEQERQK[Aib]QREQAEKNKQILEQV-NH2)
1.27	27.4	15.6	CC[C@H](C)[C@H](NC(C)=O)C(=O)N[C@H](C(=O)N[C@@H](CC(C)C)C(=O)N[C@@H](CO)C(=O)N[C@@H](CC(C)C)C(=O)N[C@@H](CC(=O)O)C(=O)N[C@@H](C(=O)N1CCC[C@H]1C(=O)N[C@H](C(=O)N[C@@H](CCCCN)C(=O)N[C@@H](CC(C)C)C(=O)N[C@@H](CCCCNC(=O)COCCOCCNC(=O)COCCOCCNC(=O)CC[C@H](NC(=O)CCCCCCCCCCCCCCCCC(=O)O)C(=O)O)C(=O)N[C@@H](CCC(N)=O)C(=O)N[C@H](C(=O)N[C@@H](CC(C)C)C(=O)N[C@@H](CC(C)C)C(=O)N[C@@H](CCC(=O)O)C(=O)N[C@@H](CCC(N)=O)C(=O)N[C@@H](CCC(=O)O)C(=O)N[C@@H](CCCNC(=N)N)C(=O)N[C@@H](CCC(N)=O)C(=O)N[C@@H](CCC(=O)O)C(=O)NC(C)(C)C(=O)N[C@@H](CCC(N)=O)C(=O)N[C@@H](CCCNC(=N)N)C(=O)N[C@@H](CCC(=O)O)C(=O)N[C@@H](CCC(N)=O)C(=O)N[C@@H](C)C(=O)N[C@@H](CCC(=O)O)C(=O)N[C@@H](CCCCN)C(=O)N[C@@H](CC(N)=O)C(=O)N[C@@H](CCCCN)C(=O)N[C@@H](CCC(N)=O)C(=O)N[C@H](C(=O)N[C@@H](CC(C)C)C(=O)N[C@@H](CCC(=O)O)C(=O)N[C@@H](CCC(N)=O)C(=O)N[C@H](C(N)=O)C(C)C)[C@@H](C)CC)[C@@H](C)CC)[C@@H](C)CC)C(C)C)C(C)C [compound 159] (Ac-IVLSLD[dV]PIKLK([AEEA-AEEA-γGlu-C18 diacid])QILLEQERQE[Aib]QREQAEKNKQILEQV-NH2)
0.03	3.49	0.83	CC[C@H](C)[C@H](N)C(=O)N[C@H](C(=O)N[C@@H](CC(C)C)C(=O)N[C@@H](CO)C(=O)N[C@@H](CC(C)C)C(=O)N[C@@H](CC(=O)O)C(=O)N[C@@H](C(=O)N1CCC[C@H]1C(=O)N[C@H](C(=O)N[C@@H](CCCCN)C(=O)N[C@@H](CC(C)C)C(=O)N[C@@H](CCCCNC(=O)COCCOCCNC(=O)COCCOCCNC(=O)CC[C@H](NC(=O)CCCCCCCCCCCCCCCCCCC(=O)O)C(=O)O)C(=O)N[C@@H](CCC(N)=O)C(=O)N[C@H](C(=O)N[C@@H](CC(C)C)C(=O)N[C@@H](CC(C)C)C(=O)N[C@@H](CCCCN)C(=O)N[C@@H](CCC(N)=O)C(=O)N[C@@H](CCC(=O)O)C(=O)N[C@@H](CCCNC(=N)N)C(=O)N[C@@H](CCC(N)=O)C(=O)N[C@@H](CCCCN)C(=O)NC(C)(C)C(=O)N[C@@H](CCC(N)=O)C(=O)N[C@@H](CCCNC(=N)N)C(=O)N[C@@H](CCC(=O)O)C(=O)N[C@@H](CCC(N)=O)C(=O)N[C@@H](C)C(=O)N[C@@H](CCC(=O)O)C(=O)N[C@@H](CCCCN)C(=O)N[C@@H](CC(N)=O)C(=O)N[C@@H](CCCCN)C(=O)N[C@@H](CCC(N)=O)C(=O)N[C@H](C(=O)N[C@@H](CC(C)C)C(=O)N[C@@H](C)C(=O)N[C@@H](CCC(N)=O)C(=O)N[C@H](C(N)=O)C(C)C)[C@@H](C)CC)[C@@H](C)CC)[C@@H](C)CC)C(C)C)C(C)C [compound 173] (H-IVLSLD[dV]PIKLK([AEEA-AEEA-γGlu-C20 diacid])QILLKQERQK[Aib]QREQAEKNKQILAQV-NH2; N-terminus assumed)
0.07	0.88	0.42	CC[C@H](C)[C@H](N)C(=O)N[C@H](C(=O)N[C@@H](CC(C)C)C(=O)N[C@@H](CO)C(=O)N[C@@H](CC(C)C)C(=O)N[C@@H](CC(=O)O)C(=O)N[C@@H](C(=O)N1CCC[C@H]1C(=O)N[C@H](C(=O)N[C@@H](CCCCN)C(=O)N[C@@H](CC(C)C)C(=O)N[C@@H](CCCCNC(=O)COCCOCCNC(=O)COCCOCCNC(=O)CC[C@H](NC(=O)CC[C@H](NC(=O)CCCCCCCCCCCCCCCCC(=O)O)C(=O)O)C(=O)O)C(=O)N[C@@H](CCC(N)=O)C(=O)N[C@H](C(=O)N[C@@H](CC(C)C)C(=O)N[C@@H](CC(C)C)C(=O)N[C@@H](CCCCN)C(=O)N[C@@H](CCC(N)=O)C(=O)N[C@@H](C)C(=O)N[C@@H](CCCNC(=N)N)C(=O)N[C@@H](CCC(N)=O)C(=O)N[C@@H](CCCCN)C(=O)NC(C)(C)C(=O)N[C@@H](CCC(N)=O)C(=O)N[C@@H](CCCNC(=N)N)C(=O)N[C@@H](C)C(=O)N[C@@H](CCC(N)=O)C(=O)N[C@@H](C)C(=O)N[C@@H](CCC(=O)O)C(=O)N[C@@H](CCCCN)C(=O)N[C@@H](CC(N)=O)C(=O)N[C@@H](CCCCN)C(=O)N[C@@H](CCCNC(=N)N)C(=O)N[C@H](C(=O)N[C@@H](CC(C)C)C(=O)N[C@@H](CCC(=O)O)C(=O)N[C@@H](CCCNC(=N)N)C(=O)N[C@H](C(N)=O)C(C)C)[C@@H](C)CC)[C@@H](C)CC)[C@@H](C)CC)C(C)C)C(C)C [compound 174] (H-IVLSLD[dV]PIKLK([AEEA-AEEA-γGlu-γGlu-C18 diacid])QILLKQARQK[Aib]QRAQAEKNKRILERV-NH2; N-terminus assumed)
